Tests used:
Test in all cases: Post-emergence efficacy of compounds of Formula (I) (B1), glasshouse
Format in all cases: in vivo
[1] = system: Amaranthus palmeri (AMAPA); settings: Application Rate 500 g/Ha, evaluated after 13 days; for pest or weed control at 500 g/ha: Amaranthus palmeri, post-emergence, 312 h, read-out: Control of AMAPA after post-emergence application (100=total damage to plant; 0=no damage to plant)
Description: (§1) Seeds of a variety of test species were sown in standard Iaom-based soil in pots:— Ipomoea hederacea (IPOHE), Euphorbia heterophylla (EPHHL), Chenopodium album (CHEAL), Amaranthus palmeri (AMAPA), Lolium perenne (LOLPE), Digitaria sanguinalis (DIGSA), Eleusine indica (ELEIN), Echinochloa crus-galli (ECHCG), Setaria faberi (SETFA). After cultivation for 14 days (post-emergence) under controlled conditions in a glasshouse (at 24/16° C., day/night; 14 hours light; 65% humidity), the plants were sprayed with an aqueous spray solution derived from the dissolution of the technical active ingredient Formula (I) in a small amount of acetone and a special solvent and emulsifier mixture referred to as IF50 (11.12% Emulsogen EL360 TM+44.44% N-methylpyrrolidone+44.44% Dowanol DPM glycol ether), to create a 50 g/I solution which was then diluted to required concentration using 0.25% or 1% Empicol ESC70 (Sodium lauryl ether sulphate)+1% ammonium sulphate as diluent. The delivery of the aqueous spray solution was via a laboratory track sprayer which delivered the aqueous spray composition at a rate of 200 litres per hectare, using a flat fan nozzle (Teejet 11002VS) and an application volume of 200 litre/ha (at 2 bar).
(§2) The test plants were then grown in a glasshouse under controlled conditions (at 24/16° C., day/night; 14 hours light; 65% humidity) and watered twice daily. After 13 days the test was evaluated (100=total damage to plant; 0=no damage to plant).

[2] = system: Chenopodium album (CHEAL); settings: Application Rate 500 g/Ha, evaluated after 13 days; for pest or weed control at 500 g/ha: Chenopodium album, post-emergence, 312 h, read-out: Control of CHEAL after post-emergence application (100=total damage to plant; 0=no damage to plant)
Description: as §1, §2

[3] = system: Digitaria sanguinalis (DIGSA); settings: Application Rate 500 g/Ha, evaluated after 13 days; for pest or weed control at 500 g/ha: Digitaria sanguinalis, post-emergence, 312 h, read-out: Control of DIGSA after post-emergence application (100=total damage to plant; 0=no damage to plant)
Description: as §1, §2

[4] = system: Echinochloa crus-galli (ECHCG); settings: Application Rate 500 g/Ha, evaluated after 13 days; for pest or weed control at 500 g/ha: Echinochloa crus-galli, post-emergence, 312 h, read-out: Control of ECHCG after post-emergence application (100=total damage to plant; 0=no damage to plant)
Description: as §1, §2

Eleusine indica (ELEIN) = settings: Eleusine indica, post-emergence, 312 h, Application Rate 500 g/Ha; evaluated after 13 days; read-out: Control of ELEIN after post-emergence application (100=total damage to plant; 0=no damage to plant)
Description: as §1, §2

[5] = system: Euphorbia heterophylla (EPHHL); settings: Application Rate 500 g/Ha, evaluated after 13 days; for pest or weed control at 500 g/ha: Euphorbia heterophylla, post-emergence, 312 h, read-out: Control of EPHHL after post-emergence application (100=total damage to plant; 0=no damage to plant)
Description: as §1, §2

[6] = system: Ipomoea hederacea (IPOHE); settings: Application Rate 500 g/Ha, evaluated after 13 days; for pest or weed control at 500 g/ha: Ipomoea hederacea, post-emergence, 312 h, read-out: Control of IPOHE after post-emergence application (100=total damage to plant; 0=no damage to plant)
Description: as §1, §2

Lolium perenne (LOLPE) = settings: Lolium perenne, post-emergence, 312 h, Application Rate 500 g/Ha; evaluated after 13 days; read-out: Control of LOLPE after post-emergence application (100=total damage to plant; 0=no damage to plant)
Description: as §1, §2

Setaria faberi (SETFA) = settings: Application Rate 500 g/Ha, evaluated after 13 days; for pest or weed control at 500 g/ha: Setaria faberi, post-emergence, 312 h, read-out: Control of SETFA after post-emergence application (100=total damage to plant; 0=no damage to plant)
Description: as §1, §2

Work on O=C(CC[n+]1ccc(-c2ncccn2)cn1)Oc1ccccc1 [Compound 1.020] yielded a pest or weed control at 500 g/ha [1] of 100%, a pest or weed control at 500 g/ha [2] of 80% and a pest or weed control at 500 g/ha [3] of 100%. The pest or weed control at 500 g/ha [4] was 90%, the pest or weed control at 500 g/ha (Eleusine indica (ELEIN)) was 100% and the pest or weed control at 500 g/ha [5] was 80%. It also gave a pest or weed control at 500 g/ha [6] of 30%, a pest or weed control at 500 g/ha (Lolium perenne (LOLPE)) of 80% and a pest or weed control at 500 g/ha (Setaria faberi (SETFA)) of 100%.
For CC(C)(C[n+]1ccc(-c2ncccn2)cn1)C(=O)O [Compound 1.022], the pest or weed control at 500 g/ha [1] was 100%, the pest or weed control at 500 g/ha [2] was 80% and the pest or weed control at 500 g/ha [3] was 100%. For the same compound, the pest or weed control at 500 g/ha [4] was 90%, the pest or weed control at 500 g/ha (Eleusine indica (ELEIN)) was 100% and the pest or weed control at 500 g/ha [5] was 100%. It also gave a pest or weed control at 500 g/ha [6] of 100%, a pest or weed control at 500 g/ha (Lolium perenne (LOLPE)) of 60% and a pest or weed control at 500 g/ha (Setaria faberi (SETFA)) of 100%.
For O=S(=O)([O-])CC[n+]1ccc(-c2ccncc2)cn1 [Compound 1.007], the pest or weed control at 500 g/ha [1] was 100%, the pest or weed control at 500 g/ha [2] was 100% and the pest or weed control at 500 g/ha [3] was 100%. For the same compound, the pest or weed control at 500 g/ha [4] was 80%, the pest or weed control at 500 g/ha (Eleusine indica (ELEIN)) was 100% and the pest or weed control at 500 g/ha [5] was 40%. For the same compound, the pest or weed control at 500 g/ha [6] was 30%, the pest or weed control at 500 g/ha (Lolium perenne (LOLPE)) was 90% and the pest or weed control at 500 g/ha (Setaria faberi (SETFA)) was 70%.
O=S(=O)(O)CC[n+]1ccc(-c2cnccn2)cn1 [Compound 1.004] showed a pest or weed control at 500 g/ha [1] of 100%, a pest or weed control at 500 g/ha [2] of 100% and a pest or weed control at 500 g/ha [3] of 100%. It also gave a pest or weed control at 500 g/ha [4] of 80%, a pest or weed control at 500 g/ha (Eleusine indica (ELEIN)) of 100% and a pest or weed control at 500 g/ha [5] of 100%. For the same compound, the pest or weed control at 500 g/ha [6] was 60%, the pest or weed control at 500 g/ha (Lolium perenne (LOLPE)) was 60% and the pest or weed control at 500 g/ha (Setaria faberi (SETFA)) was 90%.
O=C(O)CC[n+]1ccc(-c2cccnn2)cn1.[Cl-] [Compound 1.027, 3-(4-pyridazin-3-ylpyridazin-1-ium-1-yl)propanoic acid chloride] was tested, and the “Control of AMAPA after post-emergence application (100=total damage to plant; 0=no damage to plant)” value [1] was 100, the “Control of CHEAL after post-emergence application (100=total damage to plant; 0=no damage to plant)” value [2] was 100 and the “Control of DIGSA after post-emergence application (100=total damage to plant; 0=no damage to plant)” value [3] was 100. The “Control of ECHCG after post-emergence application (100=total damage to plant; 0=no damage to plant)” value [4] was 100, the pest or weed control at 500 g/ha (Eleusine indica (ELEIN)) was 80% and the “Control of EPHHL after post-emergence application (100=total damage to plant; 0=no damage to plant)” value [5] was 100. The “Control of IPOHE after post-emergence application (100=total damage to plant; 0=no damage to plant)” value [6] was 30, the pest or weed control at 500 g/ha (Lolium perenne (LOLPE)) was 100% and the “Control of SETFA after post-emergence application (100=total damage to plant; 0=no damage to plant)” value (Setaria faberi (SETFA)) was 100.
O=S(=O)([O-])CCC[n+]1ccc(-c2ncccn2)cn1 [Compound 1.003, 3-(4-pyrimidin-2-ylpyridazin-1-ium-1-yl)propane-1-sulfonate] showed a pest or weed control at 500 g/ha [1] of 100%, a pest or weed control at 500 g/ha [2] of 100% and a pest or weed control at 500 g/ha [3] of 100%. The pest or weed control at 500 g/ha [4] was 80%, the pest or weed control at 500 g/ha (Eleusine indica (ELEIN)) was 100% and the pest or weed control at 500 g/ha [5] was 100%. The pest or weed control at 500 g/ha [6] was 60%, the pest or weed control at 500 g/ha (Lolium perenne (LOLPE)) was 60% and the pest or weed control at 500 g/ha (Setaria faberi (SETFA)) was 100%.
Compound CC(C[n+]1ccc(-c2ncccn2)cn1)C(=O)O (stereo not drawn) [Compound 1.024] has a pest or weed control at 500 g/ha [1] of 100%, a pest or weed control at 500 g/ha [2] of 90% and a pest or weed control at 500 g/ha [3] of 90%. It also gave a pest or weed control at 500 g/ha [4] of 100%, a pest or weed control at 500 g/ha (Eleusine indica (ELEIN)) of 100% and a pest or weed control at 500 g/ha [5] of 100%. The pest or weed control at 500 g/ha [6] was 40%, the pest or weed control at 500 g/ha (Lolium perenne (LOLPE)) was 80% and the pest or weed control at 500 g/ha (Setaria faberi (SETFA)) was 100%.

Reference: patent US20220095618A1, “HERBICIDAL COMPOSITIONS” (SYNGENTA CROP PROTECTION AG, priority 2019, published 2022)
